The results in this text go back to patent US20260226073A1 (AURIGENE ONCOLOGY LIMITED, priority 2023, published 2026).

Experiment [1] deals with T1, human recombinant CBL-b (human Biotin CBL-b recombinant protein a.a. 39-426) (Homo sapiens, UniProt Q13191).
T1 construct: human Biotin CBL-b recombinant protein a.a; 39-426; Biotin (biotinylated); made in house
Briefly: Biochemical assay for CBL-b inhibition (ligand displacement TR-FRET). It is filed as binding. As to conditions: 50 nM CBL-b, 0.3 μM Bodipy FL-Probe, read-out: IC50 (CBL-b inhibition, group). In short, it runs like this: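 Biotinylated CBL-b (a.a. 39-426, 50 nM final) pre-incubated with compound 60 min at RT in HEPES/NaCl/Triton/BSA/TCEP buffer, then Bodipy FL probe (0.3 μM final) 60 min, then terbium-streptavidin 60 min. TR-FRET read at 665/615 nm; IC50 and % max inhibition from sigmoidal fits.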
For orientation: TR-FRET usually uses a lanthanide donor and a delayed reading to cut background.

Experiment [2] relates to NFAT signaling pathway in Jurkat NFAT reporter cells. In words: Jurkat NFAT reporter assay. It is filed as cell-based. As to conditions: Homo sapiens, 30 min with compound, then soluble anti-human CD3/CD28 antibody for 6 hours, luciferase readout, read-out: EC50 (Group). In short, it runs like this:
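Jurkat cells bearing an NFAT-RE-driven luciferase reporter (1×10^5 per well) preincubated with Cbl-b inhibitor for 30 min, then stimulated 6 h with soluble anti-CD3/CD28. Luminescence read with Bio-Glo; values are fold change over anti-CD3/CD28-stimulated cells without inhibitor.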
A general note: A reporter such as luciferase makes a cellular process visible.

T1 sequence (Q13191 39-426): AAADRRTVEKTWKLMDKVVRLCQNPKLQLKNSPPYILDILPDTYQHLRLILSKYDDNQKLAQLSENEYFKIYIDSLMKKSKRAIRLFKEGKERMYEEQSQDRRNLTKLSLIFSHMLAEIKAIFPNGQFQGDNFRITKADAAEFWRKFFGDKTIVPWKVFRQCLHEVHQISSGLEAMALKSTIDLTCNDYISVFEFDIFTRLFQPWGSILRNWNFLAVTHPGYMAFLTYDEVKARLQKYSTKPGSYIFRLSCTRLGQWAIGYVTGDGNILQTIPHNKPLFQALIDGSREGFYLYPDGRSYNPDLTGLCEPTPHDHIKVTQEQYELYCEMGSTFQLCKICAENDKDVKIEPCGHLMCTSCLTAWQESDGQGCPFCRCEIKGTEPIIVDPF

Regarding `C[C@H]1CCCN(Cc2cc(Cl)nc(N3Cc4ccc(C5(Cc6nncn6C)CC(F)(F)C5)cc4C3=O)c2)C1` [Compound 152, (S)-2-(6-Chloro-4-((3-methylpiperidin-1-yl)methyl)pyridin-2-yl)-6-(3,3-difluoro-1-((4-methyl-4H-1,2,4-triazol-3-yl)methyl)cyclobutyl)isoindolin-1-one], in experiment [1], the IC50 (commonly the midpoint of a concentration-inhibition curve) was less than 80 nM. Further, the concentration giving a half-maximal response (EC50) (in general, the concentration needed to bring the measured effect to its halfway point) in experiment [2] is less than 300 nM.

In the case of `Cn1cnnc1CC1(c2ccc3c(c2)C(=O)N(c2cc(CNCC4CC4)cc(Cl)n2)C3)CC(C#N)C1` (stereo not drawn) [Compound 156], the IC50 in experiment [1] was less than 80 nM. For the same compound, the EC50 in experiment [2] is 300 to 1000 nM.

Turning to `Cn1cnnc1CC1(c2ccc3c(c2)C(=O)N(c2cc(CN4CCCCCC4)cc(Cl)n2)C3)COC1` [Compound 157], in experiment [1], the IC50 is less than 80 nM. In experiment [2], the EC50 was less than 300 nM.

With `Cn1cnnc1CC1(c2ccc3c(c2)C(=O)N(c2cc(CNCCC(F)(F)F)cc(Cl)n2)C3)CC(C#N)C1` (stereo not drawn) [Compound 158, 3-(2-(6-Chloro-4-(((3,3,3-trifluoropropyl)amino)methyl)pyridin-2-yl)-3-oxoisoindolin-5-yl)-3-((4-methyl-4H-1,2,4-triazol-3-yl)methyl)cyclobutane-1-carbonitrile], in experiment [1], the IC50 is less than 80 nM. Also, the EC50 in experiment [2] lay within 1000 to 10000 nM.

As to `Cn1cnnc1CC1(c2ccc3c(c2)C(=O)N(c2cc(CNCC4CCCC4)cc(Cl)n2)C3)COC1` [Compound 159, 2-(6-Chloro-4-(((cyclopentylmethyl)amino)methyl)pyridin-2-yl)-6-(3-((4-methyl-4H-1,2,4-triazol-3-yl)methyl)oxetan-3-yl)isoindolin-1-one], in experiment [1], the IC50 was less than 80 nM. In addition, the EC50 in experiment [2] was less than 300 nM.

As for `Cn1cnnc1CC1(c2ccc3c(c2)C(=O)N(c2cc(CNCC4CCC4)cc(C(F)(F)F)n2)C3)COC1` [Compound 162, 2-(4-(((Cyclobutylmethyl)amino)methyl)-6-(trifluoromethyl)pyridin-2-yl)-6-(3-((4-methyl-4H-1,2,4-triazol-3-yl)methyl)oxetan-3-yl)isoindolin-1-one], the IC50 in experiment [1] is less than 80 nM. The EC50 in experiment [2] is less than 300 nM.

Consider `Cn1cnnc1CC1(c2ccc3c(c2)C(=O)N(c2cc(CNCC4CCC4)cc(Cl)n2)C3)CCC1` [Compound 168], for which the IC50 in experiment [1] is less than 80 nM. The EC50 in experiment [2] was less than 300 nM.

As to `Cn1cnnc1CC1(c2ccc3c(c2)C(=O)N(c2cc(CNCC4CC(F)(F)C4)cc(Cl)n2)C3)COC1` [Compound 169, 2-(6-Chloro-4-((((3,3-difluorocyclobutyl)methyl)amino)methyl)pyridin-2-yl)-6-(3-((4-methyl-4H-1,2,4-triazol-3-yl)methyl)oxetan-3-yl)isoindolin-1-one], the IC50 in experiment [1] is less than 80 nM. Further, the EC50 in experiment [2] was less than 300 nM.

Take `Cn1cnnc1CC1(c2ccc3c(c2)C(=O)N(c2cc(CNCC4(C)CCC4)cc(Cl)n2)C3)COC1` [Compound 172, 2-(6-Chloro-4-((((1-methylcyclobutyl)methyl)amino)methyl)pyridin-2-yl)-6-(3-((4-methyl-4H-1,2,4-triazol-3-yl)methyl)oxetan-3-yl)isoindolin-1-one]: the IC50 in experiment [1] was less than 80 nM. The EC50 in experiment [2] was 300 to 1000 nM.

Take `Cn1cnnc1CC1(c2ccc3c(c2)C(=O)N(c2cc(CNCC4CC4(F)F)cc(Cl)n2)C3)COC1` (stereo not drawn) [Compound 175, 2-(6-Chloro-4-((((2,2-difluorocyclopropyl)methyl)amino)methyl)pyridin-2-yl)-6-(3-((4-methyl-4H-1,2,4-triazol-3-yl)methyl)oxetan-3-yl)isoindolin-1-one]: the IC50 in experiment [1] is less than 80 nM. For the same compound, the EC50 in experiment [2] was in the range of 300 to 1000 nM.

In the case of `CC1CN(Cc2cc(Cl)nc(N3Cc4ccc(C5(Cc6nncn6C)COC5)cc4C3=O)c2)CCC1(F)F` (stereo not drawn) [Compound 178], the 50% inhibitory concentration (IC50) in experiment [1] was less than 80 nM. For the same compound, in experiment [2], the EC50 was 300 to 1000 nM.

As to `Cn1cnnc1CC1(c2ccc3c(c2)C(=O)N(c2cc(CNCC4CCC4)cc(Cl)n2)C3)CC(C#N)C1` (stereo not drawn) [Compound 182, 3-(2-(6-Chloro-4-(((cyclobutylmethyl)amino)methyl)pyridin-2-yl)-3-oxoiso-indolin-5-yl)-3-((4-methyl-4H-1,2,4-triazol-3-yl)methyl)cyclobutane-1-carbonitrile], in experiment [1], the IC50 is less than 80 nM. Also, the EC50 in experiment [2] was less than 300 nM.

Turning to `Cn1cnnc1CC1(c2ccc3c(c2)C(=O)N(c2cc(CNCC4(F)CCC4)cc(Cl)n2)C3)COC1` [Compound 185], the IC50 in experiment [1] is less than 80 nM. The half-maximal effective concentration (EC50) in experiment [2] lay in the range of 1000 to 10000 nM.

As for `Cn1cnnc1CC1(c2ccc3c(c2)C(=O)N(c2cc(CNCC(C)(C)O)cc(Cl)n2)C3)COC1` [Compound 187], the 50% inhibitory concentration (IC50) in experiment [1] is less than 80 nM. Also, the EC50 in experiment [2] was in the range of 1000 to 10000 nM.

As to `Cn1cnnc1CC1(c2ccc3c(c2)C(=O)N(c2cc(CNCC4CCCO4)cc(Cl)n2)C3)COC1` (stereo not drawn) [Compound 188, 2-(6-Chloro-4-((((tetrahydrofuran-2-yl)methyl)amino)methyl)pyridin-2-yl)-6-(3-((4-methyl-4H-1,2,4-triazol-3-yl)methyl)oxetan-3-yl)isoindolin-1-one], in experiment [1], the IC50 is less than 80 nM. Moreover, in experiment [2], the EC50 fell in the range of 300 to 1000 nM.

With `Cn1cnnc1CC1(c2ccc3c(c2)C(=O)N(c2cc(CNCc4cscn4)cc(Cl)n2)C3)COC1` [Compound 189], in experiment [1], the IC50 is less than 80 nM. Further, the EC50 in experiment [2] was in the range of 1000 to 10000 nM.

Regarding `CC(Cc1nncn1C)Nc1ccc2c(c1)C(=O)N(c1cc(CN3CCC[C@H](C)C3)cc(Cl)n1)C2` (stereo partly drawn) [Compound 190], the IC50 in experiment [1] was less than 80 nM. Further, in experiment [2], the 50% effective concentration (EC50) lay within 1000 to 10000 nM.

For `Cn1cnnc1CC1(c2ccc3c(c2)C(=O)N(c2cc(CNC4CCCC4O)cc(Cl)n2)C3)COC1` (stereo not drawn) [Compound 193, 2-(6-Chloro-4-(((2-hydroxycyclopentyl)amino)methyl)pyridin-2-yl)-6-(3-((4-methyl-4H-1,2,4-triazol-3-yl)methyl)oxetan-3-yl)isoindolin-1-one], the IC50 in experiment [1] was less than 80 nM. The EC50 in experiment [2] fell in the range of 1000 to 10000 nM.

Turning to `CC1CN(Cc2cc(Cl)nc(N3Cc4ccc(C5(Cc6nncn6C)COC5)cc4C3=O)c2)CC1F` (stereo not drawn) [Compound 197], the IC50 in experiment [1] was less than 80 nM. Besides, the EC50 in experiment [2] lay within 300 to 1000 nM.

For `Cc1nc(N2Cc3ccc(C4(Cc5nncn5C)COC4)cc3C2=O)cc(CNCC2CC2)c1F` [Compound 198], the IC50 in experiment [1] was less than 80 nM. In addition, the EC50 in experiment [2] is 1000 to 10000 nM.

On to `CC(NCC1CC1(F)F)c1cc(Cl)nc(N2Cc3ccc(C4(Cc5nncn5C)COC4)cc3C2=O)c1` (stereo not drawn) [Compound 199, 2-(6-Chloro-4-(1-(((2,2-difluorocyclopropyl)methyl)amino)ethyl)pyridin-2-yl)-6-(3-((4-methyl-4H-1,2,4-triazol-3-yl)methyl)oxetan-3-yl)isoindolin-1-one], for which the IC50 in experiment [1] was less than 80 nM. Besides, in experiment [2], the EC50 was less than 300 nM.

Take `Cn1cnnc1CC1(c2ccc3c(c2)C(=O)N(c2cc(CNC4CCCC4)cc(Cl)n2)C3)COC1` [Compound 201, 2-(6-Chloro-4-((cyclopentylamino)methyl)pyridin-2-yl)-6-(3-((4-methyl-4H-1,2,4-triazol-3-yl)methyl)oxetan-3-yl)isoindolin-1-one]: in experiment [1], the IC50 was less than 80 nM. Also, the EC50 in experiment [2] is less than 300 nM.

With `CC(CNCc1cc(Cl)nc(N2Cc3ccc(C4(Cc5nncn5C)COC4)cc3C2=O)c1)C(F)(F)F` (stereo not drawn) [Compound 202, 2-(6-Chloro-4-(((3,3,3-trifluoro-2-methylpropyl)amino)methyl)pyridin-2-yl)-6-(3-((4-methyl-4H-1,2,4-triazol-3-yl)methyl)oxetan-3-yl)isoindolin-1-one], in experiment [1], the IC50 was less than 80 nM. In experiment [2], the EC50 is less than 300 nM.

Turning to `CC(NCc1cscn1)c1cc(Cl)nc(N2Cc3ccc(C4(Cc5nncn5C)COC4)cc3C2=O)c1` (stereo not drawn) [Compound 205], the IC50 in experiment [1] is less than 80 nM. For the same compound, the 50% effective concentration (EC50) in experiment [2] was less than 300 nM.

As for `Cn1cnnc1CC1(c2ccc3c(c2)C(=O)N(c2cc(CNCC4(O)CCC4)cc(Cl)n2)C3)COC1` [Compound 216], the IC50 in experiment [1] is less than 80 nM. The EC50 in experiment [2] lay in the range of 1000 to 10000 nM.

In the case of `CC(NCC1CC1)c1cc(Cl)nc(N2Cc3ccc(C4(Cc5nncn5C)CC(C#N)C4)cc3C2=O)c1` (stereo not drawn) [Compound 225, 3-(2-(6-Chloro-4-(1-((cyclopropylmethyl)amino)ethyl)pyridin-2-yl)-3-oxoiso-indolin-5-yl)-3-((4-methyl-4H-1,2,4-triazol-3-yl)methyl)cyclobutane-1-carbonitrile], the IC50 in experiment [1] was less than 80 nM. In experiment [2], the EC50 was less than 300 nM.

As to `Cn1cnnc1CC1(c2ccc3c(c2)C(=O)N(c2cc(CNCC4CC(F)(F)C4)cc(Cl)n2)C3)CC(C#N)C1` (stereo not drawn) [Compound 227, 3-(2-(6-Chloro-4-((((3,3-difluorocyclobutyl)methyl)amino)methyl)pyridin-2-yl)-3-oxoisoindolin-5-yl)-3-((4-methyl-4H-1,2,4-triazol-3-yl)methyl)cyclobutane-1-carbo-nitrile], in experiment [1], the IC50 is less than 80 nM. Further, the half-maximal effective concentration (EC50) in experiment [2] was in the range of 300 to 1000 nM.

For the compound `Cn1cnnc1CC1(c2ccc3c(c2)C(=O)N(c2cc(CNCC4CC4(F)F)cc(Cl)n2)C3)CC(C#N)C1` (stereo not drawn) [Compound 230, 3-(2-(6-Chloro-4-((((2,2-difluorocyclopropyl)methyl)amino)methyl)pyridin-2-yl)-3-oxoisoindolin-5-yl)-3-((4-methyl-4H-1,2,4-triazol-3-yl)methyl)cyclobutane-1-carbonitrile], the IC50 in experiment [1] was less than 80 nM. Further, in experiment [2], the EC50 was 300 to 1000 nM.

As for `Cn1cnnc1CC1(c2ccc3c(c2)C(=O)N(c2cc(CNc4nccs4)cc(Cl)n2)C3)COC1` [Compound 237], the IC50 in experiment [1] was less than 80 nM. The EC50 in experiment [2] was 1000 to 10000 nM.

Consider `CC(NC(C)(C)C1CC1)c1cc(Cl)nc(N2Cc3ccc(C4(Cc5nncn5C)COC4)cc3C2=O)c1` (stereo not drawn) [Compound 248], for which the IC50 in experiment [1] is less than 80 nM. Besides, the EC50 in experiment [2] was less than 300 nM.
